Test results reported in ChEMBL document CHEMBL1201862, “PubChem BioAssay data set” (2004).
The source made the active and inactive calls.

Columns and labels:
[1] = molecular target: T1, Rac GTPase-activating protein 1 (Homo sapiens, UniProt Q9H0H5); assay: blockers of MgcRacGAP-driven Rac1 GTP hydrolysis – biochemical, ADP Hunter fluorescence, primary and confirmatory, confirmation (AID 624330); assay type: functional
T1 sequence (Q9H0H5 whole entry): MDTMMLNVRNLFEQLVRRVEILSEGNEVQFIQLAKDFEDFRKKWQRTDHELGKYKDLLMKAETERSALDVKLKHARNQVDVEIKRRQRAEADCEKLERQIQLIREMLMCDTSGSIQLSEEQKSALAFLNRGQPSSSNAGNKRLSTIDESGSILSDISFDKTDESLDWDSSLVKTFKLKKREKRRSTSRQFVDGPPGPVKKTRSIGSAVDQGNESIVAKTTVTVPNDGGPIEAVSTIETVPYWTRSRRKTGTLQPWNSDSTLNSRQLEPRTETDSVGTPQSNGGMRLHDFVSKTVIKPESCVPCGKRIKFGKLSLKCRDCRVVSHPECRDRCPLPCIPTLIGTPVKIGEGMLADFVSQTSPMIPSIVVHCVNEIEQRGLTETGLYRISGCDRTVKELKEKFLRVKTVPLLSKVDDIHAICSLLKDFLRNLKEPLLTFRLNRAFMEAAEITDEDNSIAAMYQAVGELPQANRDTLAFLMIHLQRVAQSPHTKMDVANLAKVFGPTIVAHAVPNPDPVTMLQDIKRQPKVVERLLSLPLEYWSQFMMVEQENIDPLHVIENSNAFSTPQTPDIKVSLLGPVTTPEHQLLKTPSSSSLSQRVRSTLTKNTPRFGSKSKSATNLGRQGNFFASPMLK

[2] = molecular target: SWI/SNF-related matrix-associated actin-dependent regulator of chromatin subfamily A member 2 (Homo sapiens, UniProt P51531); assay: Luminescence-based cell-based high throughput dose response assay to identify activators of the function of SWI/SNF related, matrix associated, actin dependent regulator of chromatin, subfamily a, member 2 (SMARCA2, BRM).; assay type: functional
[3] = Counterscreen for activators of the function of SWI/SNF related, matrix associated, actin dependent regulator of chromatin, subfamily a, member 2 (SMARCA2, BRM): Luminescence-based cell-based high throughput dose response assay to identify non-selective compounds using the VP16 reporter assay.; assay type: functional
[4] = molecular target: T2, DNA repair protein RAD52 homolog (Homo sapiens, UniProt P43351); assay type: functional, biochemical
T2 sequence (P43351 whole entry): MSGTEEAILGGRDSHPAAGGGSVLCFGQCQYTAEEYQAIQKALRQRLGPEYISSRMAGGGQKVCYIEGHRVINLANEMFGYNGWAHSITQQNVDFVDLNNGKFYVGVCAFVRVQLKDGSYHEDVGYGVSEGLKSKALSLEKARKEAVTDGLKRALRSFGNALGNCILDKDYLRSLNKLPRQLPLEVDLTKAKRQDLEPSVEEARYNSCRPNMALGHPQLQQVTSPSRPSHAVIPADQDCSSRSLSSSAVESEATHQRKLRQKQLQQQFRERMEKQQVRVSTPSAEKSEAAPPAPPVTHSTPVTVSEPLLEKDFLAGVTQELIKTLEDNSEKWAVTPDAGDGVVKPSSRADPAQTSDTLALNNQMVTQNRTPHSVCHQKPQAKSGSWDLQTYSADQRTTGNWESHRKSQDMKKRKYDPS

[5] = viability loss in HeLa cells – cytotoxicity control for MgcRacGAP inhibitor project, dose response (AID 624300); assay type: functional
[6] = molecular target: 5-hydroxytryptamine receptor 2A (Mus musculus, UniProt P35363); assay type: functional, cell-based;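 note: CHO-K1 cells with tagged receptor and beta-arrestin; agonist potency measured as compound-induced activation of the receptor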
Mu-type opioid receptor = Mu-type opioid receptor (Homo sapiens, UniProt P35372); assay type: functional, cell-based;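 note: U2OS cells with beta-arrestin recruitment to OPRM1 by beta-gal complementation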
[7] = molecular target: T3, Microphthalmia-associated transcription factor (Homo sapiens, UniProt O75030); assay: reducers of TRPM1 reporter luminescence, concentration series – cell-based, SK-MEL-5, cherry-picked, set 3, MITF inhibitor project, dose response (AID 493073); assay type: functional;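 note: SK-MEL-5 melanoma cells with luciferase driven by the MITF target TRPM1 promoter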
T3 sequence (O75030 whole entry): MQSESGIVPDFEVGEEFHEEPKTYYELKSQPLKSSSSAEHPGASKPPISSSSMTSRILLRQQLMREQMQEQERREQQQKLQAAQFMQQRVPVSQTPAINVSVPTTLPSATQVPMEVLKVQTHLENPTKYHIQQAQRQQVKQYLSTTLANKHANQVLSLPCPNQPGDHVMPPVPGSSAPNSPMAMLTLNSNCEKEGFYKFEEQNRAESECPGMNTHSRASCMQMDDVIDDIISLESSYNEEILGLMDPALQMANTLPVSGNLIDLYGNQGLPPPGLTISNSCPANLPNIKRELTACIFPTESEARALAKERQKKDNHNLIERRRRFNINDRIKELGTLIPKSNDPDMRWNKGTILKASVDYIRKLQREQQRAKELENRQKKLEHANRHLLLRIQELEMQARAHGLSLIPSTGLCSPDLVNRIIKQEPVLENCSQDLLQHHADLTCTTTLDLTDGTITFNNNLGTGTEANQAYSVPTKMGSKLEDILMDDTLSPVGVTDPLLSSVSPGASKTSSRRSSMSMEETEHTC

Vero [8] = assay: cells; assay type: functional; settings: Chlorocebus sabaeus
Vero [9] = assay: cells; assay type: functional, cell-based; settings: Chlorocebus sabaeus
Caspase-6 = molecular target: T4, Caspase-6 (Homo sapiens, UniProt P55212); assay: inhibition of CASP6 peptide cleavage – biochemical, VEID-R110 fluorescence, cherry-pick, dose response (AID 720632)
T4 sequence (P55212 whole entry): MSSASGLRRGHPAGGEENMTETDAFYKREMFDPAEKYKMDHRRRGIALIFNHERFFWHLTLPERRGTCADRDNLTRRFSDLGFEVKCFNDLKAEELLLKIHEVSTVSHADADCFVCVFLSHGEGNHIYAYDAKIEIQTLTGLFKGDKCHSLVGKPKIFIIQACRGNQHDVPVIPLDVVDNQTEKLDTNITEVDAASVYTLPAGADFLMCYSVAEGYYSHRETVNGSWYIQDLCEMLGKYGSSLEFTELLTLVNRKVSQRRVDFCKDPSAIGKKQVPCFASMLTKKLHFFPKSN

Paired box protein Pax-8 = Paired box protein Pax-8 (Homo sapiens, UniProt Q06710); assay: PAX8 transcriptional activity inhibition in RMG-I – RMG-I cells, luciferase, cherry-pick, dose response (AID 687027); assay type: functional, cell-based;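 note: luciferase reporter driven by Pax8 target thyroperoxidase promoter measured by SteadyGlo luminescence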
Beta-lactamase [10] = molecular target: Beta-lactamase (Salmonella choleraesuis (strain SC-B67), UniProt Q5J463); assay: Epi-absorbance-based counterscreen for selective VIM-2 inhibitors: dose response biochemical high throughput screening assay to identify inhibitors of TEM-1 serine-beta-lactamase.
Beta-lactamase [11] = molecular target: T5, Beta-lactamase (Pseudomonas aeruginosa, UniProt Q79MP6); assay: […] counterscreen for selective VIM-2 inhibitors: dose response biochemical high throughput screening assay to identify inhibitors of IMP-1 metallo-beta-lactamase.
Beta-lactamase [12] = molecular target: T5, Beta-lactamase; assay: inhibition of IMP-1 beta-lactamase activity – biochemical, epi-absorbance, selectivity assay for VIM-2 inhibitor project, dose response (AID 1920)

Sequence of 5-hydroxytryptamine receptor 2A (P35363 whole entry): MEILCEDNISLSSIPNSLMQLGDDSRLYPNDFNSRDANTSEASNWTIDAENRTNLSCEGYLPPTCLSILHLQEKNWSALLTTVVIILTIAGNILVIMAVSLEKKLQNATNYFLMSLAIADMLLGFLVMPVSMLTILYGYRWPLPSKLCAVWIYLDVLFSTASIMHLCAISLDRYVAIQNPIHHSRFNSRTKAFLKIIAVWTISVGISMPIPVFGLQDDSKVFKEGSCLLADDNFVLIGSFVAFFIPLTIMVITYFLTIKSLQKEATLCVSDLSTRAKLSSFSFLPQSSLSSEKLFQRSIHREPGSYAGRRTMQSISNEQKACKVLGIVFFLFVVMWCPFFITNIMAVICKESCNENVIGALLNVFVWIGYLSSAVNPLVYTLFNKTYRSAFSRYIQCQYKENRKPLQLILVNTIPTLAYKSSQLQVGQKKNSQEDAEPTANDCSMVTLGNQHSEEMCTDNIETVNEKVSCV
Sequence of SWI/SNF-related matrix-associated actin-dependent regulator of chromatin subfamily A member 2 (P51531 whole entry): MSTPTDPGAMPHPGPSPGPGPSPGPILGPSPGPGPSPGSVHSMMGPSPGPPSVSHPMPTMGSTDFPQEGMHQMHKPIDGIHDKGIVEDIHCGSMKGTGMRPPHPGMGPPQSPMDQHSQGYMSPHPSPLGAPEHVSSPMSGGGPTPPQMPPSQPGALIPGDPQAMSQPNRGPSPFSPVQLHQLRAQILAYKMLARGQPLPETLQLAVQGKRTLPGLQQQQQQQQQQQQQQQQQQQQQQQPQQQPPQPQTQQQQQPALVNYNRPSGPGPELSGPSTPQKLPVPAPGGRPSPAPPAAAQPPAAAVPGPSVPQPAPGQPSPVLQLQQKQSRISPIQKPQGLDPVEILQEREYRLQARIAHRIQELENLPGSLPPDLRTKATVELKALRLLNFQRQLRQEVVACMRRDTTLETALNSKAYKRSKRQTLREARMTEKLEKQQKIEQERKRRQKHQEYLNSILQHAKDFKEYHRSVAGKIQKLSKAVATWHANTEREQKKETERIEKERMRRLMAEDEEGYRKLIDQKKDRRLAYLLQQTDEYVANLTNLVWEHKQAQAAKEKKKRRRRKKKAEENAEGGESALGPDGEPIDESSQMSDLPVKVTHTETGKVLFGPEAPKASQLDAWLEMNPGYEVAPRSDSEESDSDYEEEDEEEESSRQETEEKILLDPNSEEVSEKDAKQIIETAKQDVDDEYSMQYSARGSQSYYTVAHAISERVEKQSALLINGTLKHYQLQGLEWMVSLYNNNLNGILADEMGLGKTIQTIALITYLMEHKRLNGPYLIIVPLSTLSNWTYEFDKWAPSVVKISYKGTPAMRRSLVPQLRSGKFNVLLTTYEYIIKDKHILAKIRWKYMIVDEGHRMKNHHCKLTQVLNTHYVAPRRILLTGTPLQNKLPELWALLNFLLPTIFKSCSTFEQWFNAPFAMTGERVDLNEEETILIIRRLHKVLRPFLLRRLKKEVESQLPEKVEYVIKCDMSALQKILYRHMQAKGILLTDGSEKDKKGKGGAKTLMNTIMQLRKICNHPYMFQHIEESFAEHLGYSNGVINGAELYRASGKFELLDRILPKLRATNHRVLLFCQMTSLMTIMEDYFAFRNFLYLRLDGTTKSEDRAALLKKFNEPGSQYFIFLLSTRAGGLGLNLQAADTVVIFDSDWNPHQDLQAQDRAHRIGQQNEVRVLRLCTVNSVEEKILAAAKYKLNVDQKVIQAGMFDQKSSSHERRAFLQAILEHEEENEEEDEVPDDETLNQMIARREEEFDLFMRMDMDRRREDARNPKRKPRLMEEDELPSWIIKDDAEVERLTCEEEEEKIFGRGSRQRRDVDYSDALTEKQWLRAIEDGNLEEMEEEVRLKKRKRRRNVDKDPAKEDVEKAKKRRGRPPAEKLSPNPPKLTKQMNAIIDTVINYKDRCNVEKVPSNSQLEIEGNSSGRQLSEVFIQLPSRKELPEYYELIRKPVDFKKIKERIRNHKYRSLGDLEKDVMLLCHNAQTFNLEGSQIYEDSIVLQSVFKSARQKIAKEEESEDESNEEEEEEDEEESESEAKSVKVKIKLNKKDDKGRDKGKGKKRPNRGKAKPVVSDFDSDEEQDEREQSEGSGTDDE
Sequence of Mu-type opioid receptor (P35372 whole entry): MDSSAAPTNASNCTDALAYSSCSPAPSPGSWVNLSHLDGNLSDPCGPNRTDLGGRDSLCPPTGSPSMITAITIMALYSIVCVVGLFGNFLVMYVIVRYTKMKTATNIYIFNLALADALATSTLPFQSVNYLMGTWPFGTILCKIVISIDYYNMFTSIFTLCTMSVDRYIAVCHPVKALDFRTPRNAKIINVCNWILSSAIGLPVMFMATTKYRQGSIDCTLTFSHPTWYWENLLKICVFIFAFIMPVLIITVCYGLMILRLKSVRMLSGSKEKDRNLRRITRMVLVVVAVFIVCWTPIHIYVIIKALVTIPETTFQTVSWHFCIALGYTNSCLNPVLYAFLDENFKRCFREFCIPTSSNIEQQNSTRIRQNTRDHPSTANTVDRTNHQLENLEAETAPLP
T5 sequence (Q79MP6 whole entry): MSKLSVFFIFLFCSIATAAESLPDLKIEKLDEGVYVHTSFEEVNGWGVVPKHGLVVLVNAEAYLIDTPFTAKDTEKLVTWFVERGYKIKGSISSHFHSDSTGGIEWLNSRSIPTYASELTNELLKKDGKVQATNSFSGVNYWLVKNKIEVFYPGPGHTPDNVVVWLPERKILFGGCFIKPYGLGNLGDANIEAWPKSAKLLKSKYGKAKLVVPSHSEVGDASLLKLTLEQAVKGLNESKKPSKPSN
Sequence of Beta-lactamase (Salmonella choleraesuis (strain SC-B67), UniProt Q5J463) (Q5J463 whole entry): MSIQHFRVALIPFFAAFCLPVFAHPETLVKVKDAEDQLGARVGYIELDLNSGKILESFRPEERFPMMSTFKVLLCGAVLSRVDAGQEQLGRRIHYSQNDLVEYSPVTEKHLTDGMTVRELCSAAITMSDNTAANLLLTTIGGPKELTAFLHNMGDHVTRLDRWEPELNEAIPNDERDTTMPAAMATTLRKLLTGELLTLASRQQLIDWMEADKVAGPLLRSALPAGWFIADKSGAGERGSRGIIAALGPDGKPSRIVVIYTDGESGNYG
Sequence of Paired box protein Pax-8 (Q06710 whole entry): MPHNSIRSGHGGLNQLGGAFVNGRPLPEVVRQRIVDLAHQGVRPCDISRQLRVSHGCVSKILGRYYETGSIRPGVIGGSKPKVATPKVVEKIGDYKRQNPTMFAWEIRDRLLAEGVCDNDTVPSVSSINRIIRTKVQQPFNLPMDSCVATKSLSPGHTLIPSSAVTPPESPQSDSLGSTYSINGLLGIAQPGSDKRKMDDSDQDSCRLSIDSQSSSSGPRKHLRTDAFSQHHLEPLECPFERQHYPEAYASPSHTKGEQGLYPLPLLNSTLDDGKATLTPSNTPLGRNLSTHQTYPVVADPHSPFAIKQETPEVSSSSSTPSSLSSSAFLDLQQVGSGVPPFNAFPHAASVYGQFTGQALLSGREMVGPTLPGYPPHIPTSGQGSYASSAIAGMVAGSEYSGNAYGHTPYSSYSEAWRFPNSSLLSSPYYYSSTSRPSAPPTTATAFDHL

COc1cc2c[n+](C)c3c4ccccc4ccc3c2cc1OC
IC50 [1]: 60.5 µM (active)
EC50 [2]: > 91.1 µM (inactive)
EC50 [3]: > 91.1 µM (inactive)
AC50 [4]: 0.36 µM (active)
CC50 [5]: 66 µM (active)

CCN(CC)C(=O)N[C@H]1C[C@@H]2c3cccc4[nH]cc(c34)C[C@H]2N(C)C1 [TERGURIDE]
EC50 [6]: 0.0038 µM (active)
EC50 (Mu-type opioid receptor): 92.5 µM (inactive)

CC(C)C(CCNC1CCN(C)CC1)c1ccc(Cl)cc1 (centres undefined)
AC50 [7]: 11.9 µM (active)
CC50 (Vero [8]): 20.4 µM (active)
IC50 (Vero [9]): > 25 µM (active)

CCOc1ccc(NC(=O)CCN2CCN(c3ccccc3F)CC2)cc1
EC50 [6]: 0.0925 µM (active)
EC50 (Mu-type opioid receptor): 92.6 µM (inactive)

O=C1CN(C(=O)COC(=O)c2ccc([N+](=O)[O-])o2)c2ccccc2N1
AC50 (Caspase-6): 15.1 µM (active)

CC(C)=CCNc1ncnc2c1c(C#N)cn2C1OC(CO)C(O)C1O (centres undefined)
EC50 [2]: > 91.1 µM (inactive)
EC50 [3]: > 91.1 µM (inactive)
AC50 (Paired box protein Pax-8): 3.79 µM (active)

O=C(O)C(NC(=O)c1ccccc1)=C(Cl)Cl
IC50 (Beta-lactamase [10]): > 59.6 µM (inactive)
IC50 (Beta-lactamase [11]): > 59.6 µM (inactive)
IC50 (Beta-lactamase [12]): > 59.6 µM (inactive)
